Publication PMC4826290 (Journal of molecular biology, 2016)

Target: T1, Pif1^238–780 (Saccharomyces cerevisiae, UniProt P07271)
T1 sequence (P07271 238-780): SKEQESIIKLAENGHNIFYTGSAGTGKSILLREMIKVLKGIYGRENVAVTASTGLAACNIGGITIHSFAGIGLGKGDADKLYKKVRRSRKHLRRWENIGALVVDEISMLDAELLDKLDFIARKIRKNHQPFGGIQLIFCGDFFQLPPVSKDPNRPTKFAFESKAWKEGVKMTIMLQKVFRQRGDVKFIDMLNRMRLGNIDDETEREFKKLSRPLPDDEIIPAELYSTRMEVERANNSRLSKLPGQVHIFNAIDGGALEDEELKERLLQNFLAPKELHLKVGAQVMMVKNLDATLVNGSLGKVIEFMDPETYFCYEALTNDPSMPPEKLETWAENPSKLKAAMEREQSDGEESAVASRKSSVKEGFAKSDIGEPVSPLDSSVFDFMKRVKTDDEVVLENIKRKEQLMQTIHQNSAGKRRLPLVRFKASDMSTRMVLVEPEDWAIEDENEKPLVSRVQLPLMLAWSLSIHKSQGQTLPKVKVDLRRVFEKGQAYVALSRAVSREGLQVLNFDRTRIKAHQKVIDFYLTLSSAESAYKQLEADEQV
Experiment: ssDNA-dependent ATPase
Assay type: biochemical

Nc1ncnc2c1ncn2[C@@H]1O[C@H](COP(=O)(O)OP(=O)(O)OP(=O)(O)O)[C@@H](O)[C@H]1O [ATP]
KATP: does not have major effects on the DNA-dependent ATPase activity and the KATP (Figure S1)
